Calls of active or inactive are those of the source. The rule behind the calls is not given here.
Experiments:
[1] = system: MCF7; assay: Cytotoxicity against human MCF7 cells after 72 hrs by crystal violet staining; format: functional, cell-based; conditions: MCF7, 72 h
[2] = system: PC-3; assay: Cytotoxicity against human PC3 cells after 72 hrs by crystal violet staining; format: functional, cell-based; conditions: PC-3, 72 h
[3] = Inhibition of microtubule polymerization at 10 uM after 10 mins

With CCc1cccc(N2O[C@H]3C(=O)C(OC)=C[C@H]2C2=C3[C@@H](NC(C)=O)CCc3cc(OC)c(OC)c(OC)c32)n1 the IC50 [1] was 22 nM and the IC50 [2] was 23 nM.

For COC1=C[C@@H]2ON(c3cnoc3C)[C@@H](C1=O)C1=C2c2c(cc(OC)c(OC)c2OC)CC[C@@H]1NC(C)=O, the Activity [3] was “inactive”, the IC50 [1] was 250 nM and the IC50 [2] was 245 nM.

In the case of COC1=C[C@H]2C3=C([C@@H](ON2c2ccccn2)C1=O)[C@@H](NC(C)=O)CCc1cc(OC)c(OC)c(OC)c13, the Activity [3] is reported as “Active”, the IC50 [1] is reported as 17 nM and the IC50 [2] is reported as 28 nM.

With COC1=C[C@H]2C3=C([C@@H](ON2c2cc(C)on2)C1=O)[C@@H](NC(C)=O)CCc1cc(OC)c(OC)c(OC)c13 the Activity [3] was “Active”, the IC50 [1] was 190 nM and the IC50 [2] was 250 nM.

COC1=C[C@H]2C3=C([C@@H](ON2c2cc(C)ccn2)C1=O)[C@@H](NC(C)=O)CCc1cc(OC)c(OC)c(OC)c13 gave an IC50 [1] of 10 nM and an IC50 [2] of 14 nM.

With COc1cc2c(c(OC)c1OC)-c1ccc(OC)c(=O)cc1[C@@H](NC(C)=O)CC2 [COLCHICINE] the Activity [3] was “Active” and the IC50 [2] was 20 nM.

For COC1=C[C@H]2C3=C([C@@H](ON2c2cccc(C)n2)C1=O)[C@@H](NC(C)=O)CCc1cc(OC)c(OC)c(OC)c13, the Activity [3] was “Active”, the IC50 [1] was 20 nM and the IC50 [2] was 25 nM.

From ChEMBL document CHEMBL1158642, “Syntheses and biological evaluation of ring-C modified colchicine analogs” (Bioorg Med Chem Lett, 2010)
